Reference: patent US4912104A, “Tricyclic fused pryimidine derivatives, and their use as pharmaceuticals” (Takeda Chemical Industries, Ltd., priority 1987, dated 1990)

Columns and labels:
Carrageenin edema = assay: Antiinflammatory action (Carrageenin edema method); type: in vivo, Jcl: SD rats; settings: Rattus norvegicus; 50 mg/kg oral, one hour before carrageenin; paw volume 3 hours later; rats; read-out: Inhibition rate, Carrageenin edema
Description: (1) Antiinflammatory action (Carrageenin edema method)
Using a group of six Jcl: SD rats (6 week old, male), antiinflammatory action was investigated in accordance with the method of Winter et al. [Proc. Soc. Exp. Biol. Med., 111, 544(1962)]. One hour after the oral administration of 50 mg/kg of a test sample, the animals were injected subcutaneously with 0.05 ml each of a 1% solution of carrageenin in physiological saline solution into a sole. The volume of the hind-paw was measured 3 hours later and compared with that before the injection, and the edema volume was determined from the difference. By comparing the edema volumes of animal groups untreated and treated with test samples, the inhibition rate was determined.

Phenyl quinone writhing = assay: Analgesic action (Phenyl quinone writhing method); type: in vivo, Slc: ICR mice; settings: Mus musculus, 20 min; 50 mg/kg oral, 30 minutes before phenyl quinone; 20 minutes counting; mice; read-out: Inhibition rate, Phenyl quinone writhing
Description: Analgesic action (Phenyl quinone writhing method)
Using a group of 10 Slc: ICR mice (4 week old, male), analgesic action was investigated in accordance with the method of Siegmund et al. [Proc. Soc. Exp. Biol. Med., 95, 729(1957)]. A test sample in a dose of 50 mg/kg was orally administered, and 30 minutes later, a 0.02% aqueous phenyl quinone solution was intraperitoneally injected in the proportion of 0.1 ml relative to 10 g of body weight. Over the period of 20 minutes from the injection, the number of writhings was counted for the individual animals. By comparing the untreated and treated animal groups for the number of reactions, the writhing inhibition rate was determined.

[1] = tested on: Reversed passive Arthus reaction; assay: Antiinflammatory action (Reversed passive Arthus reaction); type: in vivo, Jcl: SD rats; settings: Rattus norvegicus, 1 h; 12.5 mg/kg oral, one hour before the injection of egg albumin; rats; read-out: Inhibition rate, Reversed passive Arthus reaction
Description: (2) Antiinflammatory action (Reversed passive Arthus reaction)
A group consisting of six Jcl: SD rats (7 week old, male was used. The hair of the back of the animals was cut, under ether anesthesia, and 1 ml each of a 0.5% solution of egg albumin in physiological saline solution was injected into the tail vein of each test animal, followed by intradermal injection of 0.1 ml of rabbit anti-egg albumin antiserum at each side of the left and right of the back and a further intradermal injection of 0.1 ml of physiological saline solution at the left side. Three hours later, each animal was intravenously injected with 1 ml of 1% Evans' blue physiological saline solution. Thirty minutes later, the test animals were exfoliated and the area(mm^2) of each of the blue spot was measured. The test sample in a dose of 12.5 mg/kg was orally administered one hour before the injection of egg albumin. By comparing the area(mm^2) of the blue spot in the test group with that of the control group, inhibition rate was determined.

Jcl: ICR mice = settings: mouse, in vivo
Description: A group of 5 Jcl: Wistar rats (5 week old, 90-110 g body weight, Japan Clea, male) and a group of 5 Jcl: ICR mice (5 week old, 25-30 g body weight, Japan Clea, male) were used. These rats were each administerred orally with 10 ml/kg of the test compound (250 mg/kg), while these mice were each administered orally with 20 ml/kg of the test compound (500 mg/kg).
These oral administrations were made on the form of a suspension in 5% gum arabic vehicle. One week later, the number of dead animals was observed.

[2] = tested on: acute hepatic failure due to P. acnes-LPS; assay: Effect against acute hepatic failure due to P. acnes-LPS (anti-lethal effect); type: in vivo, BALB/c mice; settings: 0.3 mg/kg, p.o., one hour prior to LPS, 48 hours later; for Anti-lethal effect: Number of dead mice: group of 10, control 10 dead
Description: A group of 10 BALB/c mice (7 week old, male) was used. Each mouse was injected into the tail vein with P. acnes killed by heating at a dose of 1 mg/mouse. Seven days later, each mouse was injected intravenously with LPS(1 l μg/mouse) derived from Salmonella enteritidis to cause acute hepatic failure. Usually, in a group of mice intravenously injected with LPS, 90% to 100% of the animals die within 24 hours. Using this model, each compound was tested. Each compound(I) shown in Table 2 was suspended in a 5% gum arabic vehicle and was orally administered to the animals at 0.3 mg/kg one hour prior to the injection of LPS, and then 48 hours later, the number of the dead mice was determined. The mice in the control group were orally given the 5% gum arabic vehicle one hour prior to LPS administration.

| SMILES | inhibition in vivo at 50 mg/kg (Carrageenin edema) [%] | inhibition in vivo at 50 mg/kg (Phenyl quinone writhing) [%] | inhibition in vivo at 12.5 mg/kg [1] [%] | number of dead animals, Mice (Jcl: ICR mice) | Anti-lethal effect: effective ratio [2] [%] | Anti-lethal effect: Number of dead mice [2] |
| --- | --- | --- | --- | --- | --- | --- |
| CCCCn1c(=O)n(CCC)c(=O)c2c3n(nc21)CCN3C [compound 1] | 70 | 97 | 32 | – | – | – |
| CCCCn1c(=O)n(CCC)c(=O)c2c3n(nc21)CCN3 [compound 2] | 103 | 100 | 65 | – | – | – |
| CCCCn1c(=O)c2c3n(nc2n(CCCC)c1=O)CCN3 [compound 3] | 100 | 98 | 68 | – | – | – |
| CCCCCn1c(=O)n(CCC)c(=O)c2c3n(nc21)CCN3 [compound 6] | 105 | 96 | 71 | – | – | – |
| CCn1c(=O)c2c3n(nc2n(CC)c1=O)CCN3 [compound 7] | 99 | 52 | 42 | – | – | – |
| CCCn1c(=O)c2c3n(nc2n(CC)c1=O)CCN3 [compound 10] | 100 | 87 | 36 | – | – | – |
| CCCn1c(=O)c2c3n(nc2n(CCC)c1=O)CCN3 [compound 13] | 97 | 95 | 65 | 0 | – | – |
| CCCn1c(=O)c2c3n(nc2n(CCC(C)C)c1=O)CCN3 [compound 17] | 83 | 79 | 73 | – | – | – |
| C=CCn1c(=O)n(CCC)c(=O)c2c3n(nc21)CCN3 [compound 18] | 93 | 90 | 87 | – | – | – |
| C=CCn1c(=O)c2c3n(nc2n(CC=C)c1=O)CCN3 [compound 29] | 79 | 80 | 73 | – | – | – |
| CCCn1c(=O)c2c3n(nc2n(CCC)c1=O)CCN3C(=O)CC [compound 33] | 87 | 77 | 87 | – | – | – |
| CCCCn1c(=O)n(CCC)c(=O)c2c3n(nc21)CCN3C(C)=O [compound 40] | 82 | 89 | 69 | 0 | – | – |
| CCCCn1c(=O)n(CCC)c(=O)c2c1nn1cc[nH]c21 [compound 43] | 109 | 89 | 90 | – | 100 | 0 |
| CCCn1c(=O)c2c(nn3cc[nH]c23)n(CCC)c1=O [compound 44] | 90 | 96 | 91 | – | 100 | 0 |
| C=CCn1c(=O)c2c(nn3cc[nH]c23)n(CC=C)c1=O [compound 45] | 85 | 87 | 74 | – | 100 | 0 |
| CCCCn1c(=O)c2c(nn3cc[nH]c23)n(CCCC)c1=O [compound 46] | 90 | 96 | 70 | – | 80 | 2 |
| CCCn1c(=O)c2c(nn3cc[nH]c23)n(CC(C)C)c1=O [compound 48] | 95 | 91 | 93 | – | 90 | 1 |
| C=CCn1c(=O)n(CCC)c(=O)c2c1nn1cc[nH]c21 [compound 49] | 80 | 80 | 88 | – | 70 | 3 |
| CCCCCn1c(=O)n(CCC)c(=O)c2c1nn1cc[nH]c21 [compound 50] | 78 | 89 | 79 | – | 90 | 1 |
